Experiments:
C-IAP1 = assay: Western blotting of C-IAP1 in MDA-MB-231 cells; format: cell-based, human; settings: for C-IAP1 protein level (Western blot, in words): MDA-MB-231, 1, 5 and 10 µM
Method: (§1) The ability of the 2-oxo-3-cyano pyridines 5c and 5e to cause an inhibition of survivin was evaluated by the use of Western blotting analysis in MDA-MB-231cells treated with different concentrations of both compounds (1, 5, and 10 µM). […] Furthermore, to test the effect of these compounds on some other IAP family proteins, the Western plot of Livin, XIAP, and C-IAP1 proteins was performed (Figure 6). […] The Supplementary Material Figures S40 and S41 contain western blotting analysis for 5c and 5e.
(§2) MDA-MB-231 cancer cells were incubated with 5c and 5e at different concentrations (1, 5, and 10 µM) for 48 h. Afterwards, the medium was detached, and the cells were washed using PBS (10 mmol/L, pH 7.4). Then, the cells were incubated on cold lysis buffer (50 mmol/L Tris–HCl, 150 mmol/L NaCl, 1 mmol/L EGTA, 1 mmol/L EDTA, 20 mmol/L NaF, […], 0.5% NP40, 1% Triton X-100, 1 mmol/L PMSF (pH 7.4)) and a freshly added cocktail inhibitor (Inhibitor Cocktail Set III, Calbiochem, La Jolla, CA) above ice for 30 min. Then, MDA-MB-231 cells were collected and centrifuged at 12,000× g for 15 min.
(§3) XIAp, Survivin, Livin, and cIAP1anti-mouse, anti-rabbit secondary antibodies, and GAPDH were purchased from Sigma-Aldrich, whereas the gel was obtained from BioRad. Polyacrylamide gels were moved to a nitrocellulose membrane in order to block in buffer (7% nonfat dry milk/1% Tween 20; in 20 mmol/L TBS (pH 7.6)) for 1 h and incubated for 2 h at room temperature with the suitable primary antibody in blocking buffer or overnight at 4 °C; then, they were incubated with secondary antibody HRP conjugate. Finally, the blots analysis was done using the imaging system.

normal cell line WI-38 = assay: SRB cytotoxicity assay, normal cell line WI-38; format: cell-based; settings: Homo sapiens, WI-38, mean ± SD of three experiments
Method: The cytotoxicity of the newly synthesized compounds on the normal cell line WI-38 was also evaluated in order to examine the safety of these compounds.
(§4) Cell viability was estimated using the SRB assay. Aliquots of 100 µL cell suspension (5 × 10^3 cells) in 96-well plates were incubated in complete media for 24 h. Cells were treated with a second aliquot of 100 µL media containing various concentrations of the tested compounds (0.01, 0.1, 1, 10, and 100 μM). After 72 h, cells were fixed by replacing media with 15 µL of 10% TCA and then incubated at 4 °C for 1 h. After that, TCA solution was removed, and the cells were washed 5 times with distilled water. Aliquots of 70 µL SRB solution (0.4% w/v) were added and incubated in a dark place at room temperature for 10 min. Plates were washed 3 times with 1% acetic acid and allowed to air dry overnight. Then, 150 µL of TRIS (10 mM) was added to dissolve protein-bound SRB stain. The absorbance was measured at 540 nm using BMG LABTECH®-FLUO star Omega microplate reader (Ortenberg, Germany).

[1] = tested on: breast cancer (MDA-MB-231) cells; assay: SRB cytotoxicity assay, MDA-MB-231; format: cell-based, human; settings: for IC50: Homo sapiens, MDA-MB-231, 72 h, SRB assay, 72 h, mean ± SD of three experiments; for Selectivity Index MDA-MB-231: SI = IC50 on WI-38/IC50 on MDA-MB-231
Method: (§5) In the present work, sulforhodamine B (SRB) colorimetric assay was done to evaluate the cytotoxic activity of the synthesized 3-cyano pyridines 4a–4e, 5a–5e, and 6a–6e on three human cancer cell lines: prostate carcinoma (PC-3), breast cancer (MDA-MB-231) and hepatocellular carcinoma (HepG2) cell lines. 5-FU was used as a standard drug for comparison.
(§6) Human cancer cells were obtained from Nawah Scientific Inc. (Mokatam, Cairo, Egypt). Cells were maintained in DMEM media containing […] streptomycin, 100 units/mL penicillin, and 10% heat-inactivated fetal bovine serum in humified, 5% (v/v) CO2 atmosphere at 37 °C.
as §4

survivin = target: T1, survivin (Homo sapiens, UniProt O15392); assay: Rescue experiment with proteasome inhibitor MG132 (Western blot of survivin); format: cell-based; settings: MDA-MB cells pre-treated with proteasome inhibitor MG132
T1 construct: Western blotting analysis in MDA-MB-231cells treated with different concentrations of both compounds; endogenous in cells; host or cells: MDA-MB-231
Method: Degradation of the dimeric proteins can result from the interaction with the hydrophobic dimerization interface, which leads to conformational changes. This degradation can be mediated by the proteasome enzyme. Since 5c and 5e were expected to inhibit survivin dimerization as shown in the docking study, we assumed that they may induce the degradation of survivin via the proteasome. Thus, a rescue experiment was performed by pre-treating MDA-MB-cells with the proteasome inhibitor MG132 prior to 5c/5e treatment. […] Thus, 5c and 5e likely promote survivin degradation through the proteasome.

[2] = tested on: hepatocellular carcinoma (HepG2) cells; assay: SRB cytotoxicity assay, HepG2; format: cell-based, human; settings: for IC50: Homo sapiens, HepG2, 72 h, SRB assay, 72 h, mean ± SD of three experiments; for Selectivity Index HepG2: SI = IC50 on WI-38/IC50 on HepG2
Method: as §5, §6, §4

Livin = assay: Western blotting of Livin in MDA-MB-231 cells; format: cell-based, human; settings: for Livin protein level (Western blot, in words): MDA-MB-231, 1, 5 and 10 µM
Method: as §1, §2, §3

[3] = cytotoxicity compared with 5-FU

T1 sequence (O15392 whole entry): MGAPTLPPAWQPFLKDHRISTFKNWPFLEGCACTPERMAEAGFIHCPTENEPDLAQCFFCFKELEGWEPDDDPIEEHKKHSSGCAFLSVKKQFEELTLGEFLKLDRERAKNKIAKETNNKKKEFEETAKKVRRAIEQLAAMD

| SMILES | CIAP1 band % (C-IAP1; MDA-MB-231, 1µM) | CIAP1 band Area (C-IAP1; MDA-MB-231, 1µM) | CIAP1 band Height (C-IAP1; MDA-MB-231, 1µM) | CIAP1 band Width (C-IAP1; MDA-MB-231, 1µM) | CIAP1 band % (C-IAP1; MDA-MB-231, 5µM) | CIAP1 band Area (C-IAP1; MDA-MB-231, 5µM) | CIAP1 band Height (C-IAP1; MDA-MB-231, 5µM) | CIAP1 band Width (C-IAP1; MDA-MB-231, 5µM) | CIAP1 band % (C-IAP1; MDA-MB-231, 10µM) | CIAP1 band Area (C-IAP1; MDA-MB-231, 10µM) | CIAP1 band Height (C-IAP1; MDA-MB-231, 10µM) | CIAP1 band Width (C-IAP1; MDA-MB-231, 10µM) | C-IAP1 protein level (Western blot, in words) (C-IAP1) | IC50 (normal cell line WI-38) | IC50 [1] | Selectivity Index MDA-MB-231 [1] | effect of MG132 pre-treatment on compound-induced survivin loss (survivin) | IC50 [2] | Selectivity Index HepG2 [2] | LIVIN band % (Livin; MDA-MB-231, 1µM) | other results |
| --- | --- | --- | --- | --- | --- | --- | --- | --- | --- | --- | --- | --- | --- | --- | --- | --- | --- | --- | --- | --- | --- |
| N#Cc1c(-c2ccc(Cl)cc2)cc(-c2ccc(OCc3ccc(F)cc3)cc2)[nH]c1=O [Compound 5c, 4-(4-Chlorophenyl)-6-(4-((4-fluorobenzyl)oxy)phenyl)-2-oxo-1,2-dihydropyridine-3-carbonitrile] | 39.7% | 2565 | 192 | 24 | 34.1% | 1941 | 187 | 22 | 31.9% | 1884 | 186 | 18 | decreased the levels of these proteins | 91.29 ± 0.47 µM | 20 ± 0.17 µM | 4.56 | MG132 reversed 5c/5e-induced survivin loss | 15 ± 0.64 µM | 6.08 | 20.2% | LIVIN band Area (Livin; MDA-MB-231, 1µM): 1305; LIVIN band Height (Livin; MDA-MB-231, 1µM): 134; LIVIN band Width (Livin; MDA-MB-231, 1µM): 22; LIVIN band % (Livin; MDA-MB-231, 5µM): 13.4%; LIVIN band Area (Livin; MDA-MB-231, 5µM): 793; LIVIN band Height (Livin; MDA-MB-231, 5µM): 84; LIVIN band Width (Livin; MDA-MB-231, 5µM): 17; LIVIN band % (Livin; MDA-MB-231, 10µM): 9.1%; LIVIN band Area (Livin; MDA-MB-231, 10µM): 514; LIVIN band Height (Livin; MDA-MB-231, 10µM): 66; LIVIN band Width (Livin; MDA-MB-231, 10µM): 17; Livin protein level (Western blot, in words) (Livin): decreased the levels of these proteins |
| COc1ccc(-c2cc(-c3ccc(OCc4ccc(F)cc4)cc3)[nH]c(=O)c2C#N)cc1 [Compound 5e, 6-(4-((4-Fluorobenzyl)oxy)phenyl)-4-(4-methoxyphenyl)-2-oxo-1,2-dihydropyridine-3-carbonitrile] | 18.2% | 987 | 98 | 24 | 12.6% | 766 | 86 | 23 | 10.2% | 570 | 79 | 22 | decreased the levels of these proteins | 102.6 ± 0.81 µM | 3.59 ± 0.42 µM | 28.57 | MG132 reversed 5c/5e-induced survivin loss | 6.01 ± 0.53 µM | 17.06 | 25.7% | activity relative to 5-FU, MDA-MB-231 [1, 3]: 2.6 fold; activity relative to 5-FU, HepG2 [2, 3]: comparable to 5-FU; LIVIN band Area (Livin; MDA-MB-231, 1µM): 2085; LIVIN band Height (Livin; MDA-MB-231, 1µM): 136; LIVIN band Width (Livin; MDA-MB-231, 1µM): 33; LIVIN band % (Livin; MDA-MB-231, 5µM): 16.6%; LIVIN band Area (Livin; MDA-MB-231, 5µM): 907; LIVIN band Height (Livin; MDA-MB-231, 5µM): 68; LIVIN band Width (Livin; MDA-MB-231, 5µM): 27; LIVIN band % (Livin; MDA-MB-231, 10µM): 9.8%; LIVIN band Area (Livin; MDA-MB-231, 10µM): 330; LIVIN band Height (Livin; MDA-MB-231, 10µM): 44; LIVIN band Width (Livin; MDA-MB-231, 10µM): 14; Livin protein level (Western blot, in words) (Livin): decreased the levels of these proteins |
